Measurements taken from ChEMBL document CHEMBL5537154, “Smart glypican-3-targeting peptide-chlorin e6 conjugates for targeted photodynamic therapy of hepatocellular carcinoma” (Eur J Med Chem, 2024).
Active and inactive are the calls of the source. The rule behind the calls is not given here. Peptide text beside a SMILES is read from it.

Assays:
HepG2 [1] = experiment: Induction of cell cycle arrest at S phase in human HepG2 cells at 1 uM by flow cytometry relative to control; assay type: functional
HeLa [2] = experiment: Antiproliferative activity against human HeLa cells under dark condition by CCK8 assay; assay type: functional, cell-based
[3] = Drug distribution in BALB/C nude mouse model xenografted with human HepG2 cells at 1 to 2 uM/kg, iv measured after 1 hr by fluorescence imaging analysis; assay type: ADME, organism-based; details: in vivo, dose 1-2 µM/Kg
HeLa [4] = experiment: Antiproliferative activity against human HeLa cells under 10 J/cm2 light irradiation at 660 nm by CCK8 assay; assay type: functional, cell-based; details: light or radiation study
[5] = Aggregation property of compound in PBS; assay type: physicochemical; details: buffer
[6] = Drug distribution in lung of BALB/C nude mouse model xenografted with human HepG2 cells at 1 to 2 uM/kg, iv measured for 1 to 4 hrs by fluorescence imaging analysis; assay type: ADME, organism-based; details: in vivo, dose lower 1 µM/Kg, time lower 1 hrs, dose upper 2 µM/Kg, time upper 4 hrs
[7] = Toxicity in BALB/C nude mouse model xenografted with human HepG2 cells assessed as change in kidney weight at 1 to 2 uM/kg, iv administered every two days for 21 days along with 250 mW/cm2 light irradiation at 660 nm for 10 mins at 1 hr post-compound administration; assay type: organism-based; details: in vivo, 505.17 h, dose 1-2 µM/Kg, time 505.166 hrs
[8] = Drug uptake in lysosome of human Huh-7 cells at 2 uM incubated for 24 hrs by lyso tracker green DND-26 probe based laser confocal microscopy; assay type: ADME, subcellular; details: huh-7, 24 h
HepG2 [9] = experiment: Induction of cell cycle arrest at S phase in human HepG2 cells at 1 uM under 10 J/cm2 light irradiation at 660 nm by flow cytometry relative to control; assay type: functional
HepG2 [10] = experiment: Induction of apoptosis in human HepG2 cells assessed as necrotic cells at 5 uM incubated for 24 hrs followed by 10 J/cm2 of light irradiation at 660 nm measured after 24 hrs by Annexin V-FITC/PI staining based flow cytometry relative to control; assay type: functional; details: time 48 hrs
chymotrypsin = chymotrypsin (Homo sapiens, UniProt P17538+P40313+Q6GPI1+Q99895); experiment: Stability of compound assessed as chymotrypsin (unknown origin)-mediated compound degradation in PBS at pH 7.4 by measuring half life; assay type: ADME, protein assay
[11] = Drug distribution in tumor of BALB/C nude mouse model xenografted with human HepG2 cells administered intravenously measured after 2 hrs by fluorescence spectrophotometry; assay type: ADME, tissue-based, Neoplasm; details: in vivo, iv, dose 1-2 µM/Kg
HepG2 [12] = experiment: Induction of apoptosis in human HepG2 cells assessed as early apoptotic cells at 2.5 uM incubated for 24 hrs followed by 10 J/cm2 of light irradiation at 660 nm measured after 24 hrs by Annexin V-FITC/PI staining based flow cytometry relative to control; assay type: functional; details: time 48 hrs
[13] = Drug uptake in lysosome of human HepG2 cells assessed as pearsons co-efficient of lyso tracker green DND-26-yellow signal at 2 uM incubated for 24 hrs by laser confocal microscopy; assay type: ADME, subcellular; details: hepg2, 24 h
Glypican-3 = Glypican-3 (Homo sapiens, UniProt P51654); experiment: Binding affinity to GPC3 (unknown origin) assessed as dissociation constant by fluorescence polarization assay
Sequence of Glypican-3 (P51654 25-358 limits assumed): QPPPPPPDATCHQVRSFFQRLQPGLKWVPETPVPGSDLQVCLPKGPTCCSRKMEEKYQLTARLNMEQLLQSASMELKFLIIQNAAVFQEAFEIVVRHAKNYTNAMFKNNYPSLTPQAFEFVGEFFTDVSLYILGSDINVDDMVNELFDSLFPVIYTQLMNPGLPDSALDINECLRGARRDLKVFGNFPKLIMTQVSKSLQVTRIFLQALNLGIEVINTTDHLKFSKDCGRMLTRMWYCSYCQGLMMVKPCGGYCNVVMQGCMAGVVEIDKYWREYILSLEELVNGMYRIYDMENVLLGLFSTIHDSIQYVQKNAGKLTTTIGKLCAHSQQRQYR
Sequence of Glypican-3 (P51654 359-554 limits assumed): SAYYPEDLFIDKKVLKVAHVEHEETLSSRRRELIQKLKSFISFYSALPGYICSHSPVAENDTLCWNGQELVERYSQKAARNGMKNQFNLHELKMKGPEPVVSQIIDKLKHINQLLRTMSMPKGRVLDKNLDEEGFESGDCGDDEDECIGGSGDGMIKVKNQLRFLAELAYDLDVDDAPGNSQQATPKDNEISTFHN

[14] = Drug distribution in tumor of BALB/C nude mouse model xenografted with human HepG2 cells at 1 uM/kg, iv measured after 2 hrs by fluorescence spectrophotometry; assay type: ADME, organism-based, Neoplasm; details: in vivo
HepG2 [15] = experiment: Induction of ROS generation in human HepG2 cells at 10 uM preincubated for 24 hrs followed by DCFH-DA probe addition and further incubated under dark condition for 20 mins prior and 20 mins post- light irradiation of 10 J/cm2 at 660 nm by flow cytometry; assay type: functional, cell-based; details: time 24.66 hrs
HepG2 [16] = experiment: Induction of apoptosis in human HepG2 cells assessed as early apoptotic cells at 5 uM incubated for 24 hrs followed by 10 J/cm2 of light irradiation at 660 nm measured after 24 hrs by Annexin V-FITC/PI staining based flow cytometry relative to control; assay type: functional; details: time 48 hrs
HepG2 [17] = experiment: Induction of apoptosis in human HepG2 cells assessed as late apoptotic cells under dark condition at 2.5 uM incubated for 24 hrs by Annexin V-FITC/PI staining based flow cytometry relative to control; assay type: functional
[18] = Drug distribution in tumor of BALB/C nude mouse model xenografted with human Huh-7 cells at 1 to 2 uM/kg, iv measured for 1 to 6 hrs by fluorescence imaging analysis; assay type: ADME, organism-based, Neoplasm; details: in vivo, dose lower 1 µM/Kg, time lower 1 hrs, dose upper 2 µM/Kg, time upper 6 hrs
HepG2 [19] = experiment: Induction of apoptosis in human HepG2 cells assessed as necrotic cells under dark condition at 2.5 uM incubated for 24 hrs by Annexin V-FITC/PI staining based flow cytometry relative to control; assay type: functional
[20] = Antiproliferative activity against human HUVEC cells under dark condition by CCK8 assay; assay type: toxicity, cell-based
[21] = Drug uptake in human Huh-7 cells at 10 uM by confocal microscopy; assay type: ADME, cell-based; details: huh-7, 10 µM, TDE = time-dependent effect, time 4-24 hrs
[22] = Toxicity in BALB/C nude mouse model xenografted with human HepG2 cells assessed as change in lung weight at 1 to 2 uM/kg, iv administered every two days for 21 days along with 250 mW/cm2 light irradiation at 660 nm for 10 mins at 1 hr post-compound administration; assay type: organism-based; details: in vivo, 505.17 h, dose 1-2 µM/Kg, time 505.166 hrs
[23] = Drug distribution in tumor of BALB/C nude mouse model xenografted with human Huh-7 cells administered intravenously measured after 2 hrs by fluorescence spectrophotometry; assay type: ADME, tissue-based, Neoplasm; details: in vivo, iv, dose 1-2 µM/Kg
[24] = Drug distribution in heart of BALB/C nude mouse model xenografted with human HepG2 cells at 1 to 2 uM/kg, iv measured for 1 to 4 hrs by fluorescence imaging analysis; assay type: ADME, organism-based; details: in vivo, dose lower 1 µM/Kg, time lower 1 hrs, dose upper 2 µM/Kg, time upper 4 hrs
HepG2 [25] = experiment: Antitumor activity against human HepG2 cells xenografted in BALB/C nude mouse model assessed as decrease in Ki67 expression at 1 to 2 uM/kg, iv administered every two days for 21 days along with 250 mW/cm2 light irradiation at 660 nm for 10 mins at 1 hr post-compound administration by […] based analysis; assay type: functional, organism-based; details: dose 1-2 µM/Kg, time 505.166 hrs
[26] = Partition coefficient, logP of compound; assay type: physicochemical; details: octanol/water
HepG2 [27] = experiment: Induction of apoptosis in human HepG2 cells assessed as necrotic cells under dark condition at 5 uM incubated for 24 hrs by Annexin V-FITC/PI staining based flow cytometry relative to control; assay type: functional
MCF7 = experiment: Antiproliferative activity against human MCF7 cells under 10 J/cm2 light irradiation at 660 nm by CCK8 assay; assay type: functional, cell-based; details: MCF7, light or radiation study
[28] = Toxicity in BALB/C nude mouse model xenografted with human HepG2 cells assessed as body weight loss at 1 to 2 uM/kg, iv administered every two days for 21 days along with 250 mW/cm2 light irradiation at 660 nm for 10 mins at 1 hr post-compound administration; assay type: organism-based; details: in vivo, 505.17 h, dose 1-2 µM/Kg, time 505.166 hrs
HepG2 [29] = experiment: Antitumor activity in human HepG2 cells xenografted in BALB/C nude mouse model assessed as tumor growth inhibition at 1 to 2 uM/kg, iv administered every two days for 21 days along with 250 mW/cm2 light irradiation at 660 nm for 10 mins at 1 hr post-compound administration relative to control; assay type: functional; details: dose 1-2 µM/Kg, time 505.166 hrs, 505.17 h, at 1 to 2 µmol/kg

For `C=Cc1c(C)c2cc3nc(c(CC(=O)O)c4[nH]c(cc5nc(cc1[nH]2)C(C)=C5CC)c(C)c4C(=O)NCCCC(=O)N[C@@H](CC(=O)O)C(=O)N[C@@H](Cc1cnc[nH]1)C(=O)N[C@@H](CC(C)C)C(=O)N[C@@H](C)C(=O)N[C@@H](CO)C(=O)N[C@@H](CC(C)C)C(=O)N[C@@H](Cc1c[nH]c2ccccc12)C(=O)N[C@@H](Cc1c[nH]c2ccccc12)C(=O)NCC(=O)N[C@H](C(=O)N[C@@H](CCC(=O)O)C(=O)N[C@@H](CC(C)C)C(=O)O)[C@@H](C)O)[C@@H](CCC(=O)O)[C@@H]3C` (HELM PEPTIDE1{[C=Cc1c(C)c2cc3nc(c(CC(=O)O)c4[nH]c(cc5nc(cc1[nH]2)C(C)=C5CC)c(C)c4C(=O)[*:2])[C@@H](CCC(=O)O)[C@@H]3C].[O=C(CCCN[*:1])[*:2]].D.H.L.A.S.L.W.W.G.T.E.L}$$$$V2.0), the Activity (HepG2 [1]) was 21.8%, the IC50 (HeLa [2]) was > 100 µM and the Drug uptake [3] was “Active”. For the same molecule, the IC50 (HeLa [4]) was > 10 µM, the Activity [5] was “Active” and the Drug uptake [6] was “Not Active”. For the same molecule, the Activity [7] was “Non-Toxic”, the Drug uptake [8] was “Active” and the Activity (HepG2 [9]) was 27.7%. For the same molecule, the Activity (HepG2 [10]) was 15.3%, the half-life (chymotrypsin) was 7.6 h and the Drug uptake [11] was “Dose-Dependent Effect”. For the same molecule, the Activity (HepG2 [12]) was 0.1%, the Activity [13] was 0.79 and the Kd (Glypican-3) was 0.38 µM. For the same molecule, the Drug uptake [14] was “Active”, the Activity (HepG2 [15]) was “Active” and the Activity (HepG2 [16]) was 8.4%. The Activity (HepG2 [17]) was 2%, the Drug uptake [18] was “Active” and the Activity (HepG2 [19]) was 0.2%. For the same molecule, the IC50 [20] was > 200 µM, the Drug uptake [21] was “Tde” and the Activity [22] was “Non-Toxic”. The Drug uptake [23] was “Active”, the Drug uptake [24] was “Not Active” and the Activity (HepG2 [25]) was “Active”. For the same molecule, the logP [26] was 1.8, the Activity (HepG2 [27]) was 0.1% and the IC50 (MCF7) was > 10 µM. For the same molecule, the Activity [28] was “Non-Toxic” and the TGI (HepG2 [29]) was 100%.
